Article PMC8151276, “An Integrated Approach toward NanoBRET Tracers for Analysis of GPCR Ligand Engagement” (Molecules, 2021)

Legend:
Format in all cases: binding
FZD2 = biological target: T1, FZD2 (Homo sapiens, UniProt Q14332); test: NanoBRET screen HiBiT-FZD2 in HEK293
T1 construct: purchased Promega (in-house HiBiT-GPCR construct library, NanoBRET)
Experimental: (§1) Each tracer candidate was screened across the entire library of HiBiT-GPCR constructs using NanoBRET as the detection modality. As depicted in Figure 4A, the specificity of interactions was evaluated through decrease in BRET due to competitive displacement of a bound tracer by excess parental compound. Each tracer was analyzed for binding to each HiBiT-GPCR fusion in the absence and in the presence of competing parental compound. Briefly, HEK293 cells were transfected with HiBiT-GPCR constructs diluted into promoterless DNA to reduce expression and maximize translocation to the cell surface. Each tracer candidate was then screened at concentrations of 1 μM and 0.1 μM across cells expressing these fusions. Cells were treated for 1.5 h with tracer either alone or in the presence of 20 μM competing parental compound (i.e., control). BRET was measured upon addition of purified LgBiT and subsequent complementation with HiBiT genetically fused to a GPCR. The specificity of interactions was assessed through a decrease in BRET signal due to competitive displacement of the bound tracer. To further gauge the robustness of these interactions, the fold response over the control (i.e., BRETtracer/BRETcontrol) was calculated. We chose a 1.5-fold response, which translates to ≥7-fold signal over noise as the minimal threshold required to score an interaction as positive. […]. Below we highlight the screening results obtained for our exemplary fluorescent tracers based on Clozapine, Amitriptyline and AZD1283.
(§2) HiBiT-GPCR DNA constructs were diluted in 10 mM Tris pH 8 to a final concentration of 0.01 μg/μL, arrayed in 96-well plates and stored at −20 °C. For transfection, HEK293 cells were suspended in Opti-MEM (without phenol red) supplemented with 2% fetal bovine serum (Seradigm) and 100 units/mL penicillin–streptomycin (Gibco) at a final concentration of 220,000 cells/mL and dispensed into white 96-well plates at 90 μL/well. Subsequent transfections and screens were carried using an Agilent Bravo Automated Liquid Handling Platform. First, the 96-well HiBiT DNA arrays were diluted 25-fold in Opti-MEM (without serum or phenol red) to a final concentration of 0.0004 μg/μL and 20 μL of the diluted DNAs were transferred into new 96-well plates. Next, promoterless carrier DNA (1 μg/μL) was diluted 25-fold (0.04 μg/μL) and then dispensed into the diluted arrays at 20 μL/well. Following brief mixing, Viafect transfection reagent (Promega) diluted 16-fold into Opti-MEM was dispensed into the plates at 40 μL/well. After mixing by pipetting, plates were incubated for 10 min on the pipetting station deck. The DNA-transfection reagent complexes were then added to plates containing cells. To facilitate the screen, 10 μL of DNA-transfection reagent complexes were added in duplicates to the top 4 and bottom 4 rows, resulting in two identical 48-well arrays per plate. Plates with transfected cells were incubated for 18–20 h at 37 °C/5% CO2. A screen of each tracer across the entire library using two different concentrations requires duplicate plates of transfected cells. Depending on the number of tracers being screened, transfections can be scaled up using the same ratios. The next day, for each tracer, four 20× screening solutions in tracer dilution buffer (Promega) were prepared: two duplicates at final concentration of 20 μM and two duplicates at a final concentration of 2 μM. A competing unmodified compound was added to one of each duplicate at a final concentration of 400 μM. The four resulting solutions were diluted 4-fold in Opti-MEM without serum or phenol red to generate 5× solutions (5 µM and 0.5 µM tracer +/− 100 μM competing compound). To screen the library, a BioTek MultiFlo FX liquid dispenser was used to dispense 22.5 µL of tracer solution to the top 4 rows and 22.5 µL tracer + competing compound solution to the 4 bottom rows. Plates were briefly mixed on an orbital shaker and incubated for 1.5 h at room temperature. […]

GRPR = biological target: T2, GRPR (Homo sapiens, UniProt P30550); test: NanoBRET screen HiBiT-GRPR in HEK293
T2 construct: purchased Promega (in-house HiBiT-GPCR construct library, NanoBRET)
Experimental: as §1, §2

CCR1 = biological target: T3, CCR1 (Homo sapiens, UniProt P32246); test: NanoBRET screen HiBiT-CCR1 in HEK293
T3 construct: purchased Promega (in-house HiBiT-GPCR construct library, NanoBRET)
T3 sequence (P32246 1-355): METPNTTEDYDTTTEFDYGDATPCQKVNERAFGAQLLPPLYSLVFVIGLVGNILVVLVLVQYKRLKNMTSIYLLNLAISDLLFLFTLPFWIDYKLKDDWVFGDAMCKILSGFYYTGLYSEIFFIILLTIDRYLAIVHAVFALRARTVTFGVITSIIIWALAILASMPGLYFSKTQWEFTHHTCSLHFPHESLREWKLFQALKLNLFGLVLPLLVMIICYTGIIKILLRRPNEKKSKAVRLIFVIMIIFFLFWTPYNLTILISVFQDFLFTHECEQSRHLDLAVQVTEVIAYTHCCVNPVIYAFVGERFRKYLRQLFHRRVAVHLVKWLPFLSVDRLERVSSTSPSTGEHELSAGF
Experimental: as §1, §2

GRM1 = biological target: T4, GRM1 (Homo sapiens, UniProt Q13255); test: NanoBRET screen HiBiT-GRM1 in HEK293; conditions: GRM1
T4 construct: purchased Promega (in-house HiBiT-GPCR construct library, NanoBRET)
Experimental: as §1, §2

PTAFR = biological target: T5, PTAFR (Homo sapiens, UniProt P25105); test: NanoBRET screen HiBiT-PTAFR in HEK293
T5 construct: purchased Promega (in-house HiBiT-GPCR construct library, NanoBRET)
Experimental: as §1, §2

RXFP2 = biological target: T6, RXFP2 (Homo sapiens, UniProt Q8WXD0); test: NanoBRET screen HiBiT-RXFP2 in HEK293
T6 construct: purchased Promega (in-house HiBiT-GPCR construct library, NanoBRET)
Experimental: as §1, §2

PTGER4 = biological target: T7, PTGER4 (Homo sapiens, UniProt P35408); test: NanoBRET screen HiBiT-PTGER4 in HEK293
T7 construct: purchased Promega (in-house HiBiT-GPCR construct library, NanoBRET)
Experimental: as §1, §2

[1] = tracer at 0.1μM, listed as amitriptyline-b-2-NB590
[2] = tracer at 1μM, listed as amitriptyline-b-2-NB590

T5 sequence (P25105 whole entry): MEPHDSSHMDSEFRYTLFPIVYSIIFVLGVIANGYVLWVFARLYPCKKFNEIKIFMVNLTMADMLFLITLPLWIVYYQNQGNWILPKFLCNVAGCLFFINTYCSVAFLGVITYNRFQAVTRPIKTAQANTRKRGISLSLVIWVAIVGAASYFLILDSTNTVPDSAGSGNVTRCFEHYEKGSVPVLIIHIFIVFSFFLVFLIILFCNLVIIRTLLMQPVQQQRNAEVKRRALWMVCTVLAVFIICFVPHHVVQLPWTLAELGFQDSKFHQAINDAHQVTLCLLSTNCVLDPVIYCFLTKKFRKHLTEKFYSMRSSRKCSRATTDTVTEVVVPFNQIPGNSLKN
T7 sequence (P35408 whole entry): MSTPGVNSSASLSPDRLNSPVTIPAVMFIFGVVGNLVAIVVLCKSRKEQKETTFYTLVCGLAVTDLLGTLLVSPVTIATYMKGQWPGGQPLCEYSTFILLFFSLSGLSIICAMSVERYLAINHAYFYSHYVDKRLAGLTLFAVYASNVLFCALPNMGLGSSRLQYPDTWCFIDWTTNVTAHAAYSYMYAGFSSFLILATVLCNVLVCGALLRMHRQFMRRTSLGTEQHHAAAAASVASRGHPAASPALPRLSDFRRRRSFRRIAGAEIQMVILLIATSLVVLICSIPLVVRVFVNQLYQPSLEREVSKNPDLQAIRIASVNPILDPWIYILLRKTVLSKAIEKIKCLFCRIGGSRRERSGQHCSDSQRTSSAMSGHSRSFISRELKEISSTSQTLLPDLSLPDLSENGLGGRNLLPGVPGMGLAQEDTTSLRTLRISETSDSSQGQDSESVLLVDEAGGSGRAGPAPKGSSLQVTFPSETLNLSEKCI
T6 sequence (Q8WXD0 whole entry): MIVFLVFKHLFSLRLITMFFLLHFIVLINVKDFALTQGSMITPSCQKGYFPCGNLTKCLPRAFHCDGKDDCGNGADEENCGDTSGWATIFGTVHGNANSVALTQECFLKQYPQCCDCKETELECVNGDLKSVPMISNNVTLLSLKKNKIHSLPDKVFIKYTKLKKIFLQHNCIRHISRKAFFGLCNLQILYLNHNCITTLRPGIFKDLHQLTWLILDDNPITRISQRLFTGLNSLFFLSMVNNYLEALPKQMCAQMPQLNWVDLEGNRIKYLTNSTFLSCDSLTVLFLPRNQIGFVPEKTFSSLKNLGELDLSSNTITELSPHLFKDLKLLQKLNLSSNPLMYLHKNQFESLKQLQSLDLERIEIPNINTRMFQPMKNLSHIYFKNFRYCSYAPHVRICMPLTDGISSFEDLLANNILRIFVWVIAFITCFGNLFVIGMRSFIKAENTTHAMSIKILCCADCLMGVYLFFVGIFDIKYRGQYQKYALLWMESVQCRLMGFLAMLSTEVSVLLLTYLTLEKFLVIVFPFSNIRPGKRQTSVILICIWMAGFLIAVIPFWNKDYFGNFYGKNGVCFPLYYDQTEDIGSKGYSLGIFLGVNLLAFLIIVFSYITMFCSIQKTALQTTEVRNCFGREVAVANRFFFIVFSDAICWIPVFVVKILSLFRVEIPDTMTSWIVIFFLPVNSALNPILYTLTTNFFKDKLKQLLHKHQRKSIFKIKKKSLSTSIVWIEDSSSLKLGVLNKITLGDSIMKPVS
T1 sequence (Q14332 24-565): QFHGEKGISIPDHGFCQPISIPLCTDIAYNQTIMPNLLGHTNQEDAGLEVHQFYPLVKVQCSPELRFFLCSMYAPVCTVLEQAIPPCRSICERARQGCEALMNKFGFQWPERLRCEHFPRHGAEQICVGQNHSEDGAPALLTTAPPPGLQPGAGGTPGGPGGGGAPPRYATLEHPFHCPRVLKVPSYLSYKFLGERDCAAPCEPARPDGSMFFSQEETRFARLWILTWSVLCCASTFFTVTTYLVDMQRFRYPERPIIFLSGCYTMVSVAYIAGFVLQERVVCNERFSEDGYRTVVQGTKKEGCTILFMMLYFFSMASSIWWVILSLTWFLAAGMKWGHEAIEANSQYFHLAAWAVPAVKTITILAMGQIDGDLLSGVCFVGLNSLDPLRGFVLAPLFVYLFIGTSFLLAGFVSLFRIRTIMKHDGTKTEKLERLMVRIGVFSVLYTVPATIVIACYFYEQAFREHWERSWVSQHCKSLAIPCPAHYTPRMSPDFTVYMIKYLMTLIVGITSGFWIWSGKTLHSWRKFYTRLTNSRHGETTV
T2 sequence (P30550 whole entry): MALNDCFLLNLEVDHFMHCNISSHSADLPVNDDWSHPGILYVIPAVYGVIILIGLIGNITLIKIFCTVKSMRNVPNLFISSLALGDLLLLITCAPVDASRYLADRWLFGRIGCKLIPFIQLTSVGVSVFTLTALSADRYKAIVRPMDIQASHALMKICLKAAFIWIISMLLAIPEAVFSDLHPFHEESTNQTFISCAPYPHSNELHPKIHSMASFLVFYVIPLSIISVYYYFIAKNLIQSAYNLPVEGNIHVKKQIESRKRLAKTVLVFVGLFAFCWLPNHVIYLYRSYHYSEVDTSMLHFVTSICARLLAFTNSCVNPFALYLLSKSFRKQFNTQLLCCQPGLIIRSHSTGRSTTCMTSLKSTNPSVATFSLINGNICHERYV
T4 sequence (Q13255 19-1194): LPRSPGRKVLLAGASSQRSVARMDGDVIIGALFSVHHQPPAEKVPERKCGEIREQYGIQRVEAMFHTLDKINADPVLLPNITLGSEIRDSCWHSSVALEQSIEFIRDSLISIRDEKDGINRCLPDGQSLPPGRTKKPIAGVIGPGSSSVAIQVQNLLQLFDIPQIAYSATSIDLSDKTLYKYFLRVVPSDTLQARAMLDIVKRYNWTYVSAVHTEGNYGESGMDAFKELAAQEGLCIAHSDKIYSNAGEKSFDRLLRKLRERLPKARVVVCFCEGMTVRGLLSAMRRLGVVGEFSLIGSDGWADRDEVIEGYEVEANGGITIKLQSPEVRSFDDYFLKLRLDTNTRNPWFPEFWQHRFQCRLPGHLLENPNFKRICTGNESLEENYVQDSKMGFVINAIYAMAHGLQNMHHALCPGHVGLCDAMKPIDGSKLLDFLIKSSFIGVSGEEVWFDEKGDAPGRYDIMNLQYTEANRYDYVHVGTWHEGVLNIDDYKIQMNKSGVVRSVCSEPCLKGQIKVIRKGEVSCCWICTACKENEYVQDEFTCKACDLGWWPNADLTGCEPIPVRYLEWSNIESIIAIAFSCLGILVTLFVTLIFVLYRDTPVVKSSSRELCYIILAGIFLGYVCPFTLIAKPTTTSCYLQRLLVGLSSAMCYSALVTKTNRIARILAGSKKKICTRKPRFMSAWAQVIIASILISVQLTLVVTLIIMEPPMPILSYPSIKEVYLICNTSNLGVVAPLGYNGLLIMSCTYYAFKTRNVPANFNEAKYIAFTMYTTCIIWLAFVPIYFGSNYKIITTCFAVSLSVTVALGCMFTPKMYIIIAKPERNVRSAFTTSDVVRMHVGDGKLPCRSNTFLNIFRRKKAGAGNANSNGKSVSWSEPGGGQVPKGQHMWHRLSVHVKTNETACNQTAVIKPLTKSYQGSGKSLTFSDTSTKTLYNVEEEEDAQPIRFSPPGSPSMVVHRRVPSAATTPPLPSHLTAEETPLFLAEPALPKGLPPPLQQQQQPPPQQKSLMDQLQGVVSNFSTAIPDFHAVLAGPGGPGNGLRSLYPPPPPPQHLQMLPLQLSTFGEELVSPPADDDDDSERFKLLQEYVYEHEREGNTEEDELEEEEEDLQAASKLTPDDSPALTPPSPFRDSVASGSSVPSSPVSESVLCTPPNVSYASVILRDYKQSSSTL

Row | Structure (SMILES) | NanoBRET Fold Response (FZD2; FZD2, tracer 0.1μM) | NanoBRET Fold Response (FZD2; FZD2, tracer 1μM) | NanoBRET Fold Response (GRPR; GRPR, tracer 0.1μM) | NanoBRET Fold Response (GRPR; GRPR, tracer 1μM) | NanoBRET Fold Response (CCR1; CCR1, tracer 0.1μM) | NanoBRET Fold Response (CCR1; CCR1, tracer 1μM) | NanoBRET Fold Response (GRM1; tracer 0.1μM) | NanoBRET Fold Response (GRM1; tracer 1μM) | NanoBRET Fold Response (PTAFR; PTAFR, tracer 0.1μM) | NanoBRET Fold Response (PTAFR; PTAFR, tracer 1μM) | NanoBRET Fold Response (RXFP2; RXFP2, tracer 0.1μM) | NanoBRET Fold Response (RXFP2; RXFP2, tracer 1μM) | NanoBRET Fold Response (PTGER4; PTGER4, tracer 0.1μM) | NanoBRET Fold Response (PTGER4; PTGER4, tracer 1μM) | other results
1 | O=C(CCc1ccc2n1[B-](F)(F)[N+]1=C(c3ccc[nH]3)C=CC1=C2)NCCOCCOCCNC(=O)OCCOCCN1CCN(C2=Nc3ccccc3Sc3ccccc32)CC1 [Quetiapine-a-2-NB590] | 0.96 | 0.89 | 0.66 | 0.84 | 0.99 | 0.99 | 0.74 | 1.00 | 1.05 | 1.13 | 1.31 | 1.01 | 1.02 | 1.08 | –
2 | CN1CCN(C2=Nc3cc(Cl)ccc3Nc3ccc(CNC(=O)CCOCCOCCOCCOCCNC(=O)CCc4ccc5n4[B-](F)(F)[N+]4=C(c6ccc[nH]6)C=CC4=C5)cc32)CC1 [Clozapine-b-2-NB590] | – | – | – | – | – | – | – | – | – | – | – | – | – | – | NanoBRET Fold Response (FZD2; FZD2, 0.1μM tracer): 1.01; NanoBRET Fold Response (FZD2; FZD2, 1μM tracer): 1.11; NanoBRET Fold Response (GRPR; GRPR, 0.1μM tracer): 1.01; NanoBRET Fold Response (GRPR; GRPR, 1μM tracer): 1.00; NanoBRET Fold Response (CCR1; CCR1, 0.1μM tracer): 1.04; NanoBRET Fold Response (CCR1; CCR1, 1μM tracer): 0.98; NanoBRET Fold Response (GRM1; 0.1μM tracer): 1.05; NanoBRET Fold Response (GRM1; 1μM tracer): 0.74; NanoBRET Fold Response (PTAFR; PTAFR, 0.1μM tracer): 1.01; NanoBRET Fold Response (PTAFR; PTAFR, 1μM tracer): 1.14; NanoBRET Fold Response (RXFP2; RXFP2, 0.1μM tracer): 1.04; NanoBRET Fold Response (PTGER4; PTGER4, 0.1μM tracer): 1.03; NanoBRET Fold Response (PTGER4; PTGER4, 1μM tracer): 1.03
3 | CC(C)N(CC[C@H](c1ccccc1)c1cc(CCNC(=O)CCOCCOCCOCCOCCNC(=O)CCc2ccc3n2[B-](F)(F)[N+]2=C(c4ccc[nH]4)C=CC2=C3)ccc1O)C(C)C [Tolterodine-2-NB590] | 0.91 | 0.95 | 0.89 | 0.91 | 0.97 | 0.94 | 0.94 | 0.81 | 1.17 | 0.73 | 1.11 | 1.30 | 1.00 | 0.99 | –
4 | Cc1cc2c(s1)Nc1ccccc1N=C2N1CCN(CCCNC(=O)CCOCCOCCOCCOCCNC(=O)CCc2ccc3n2[B-](F)(F)[N+]2=C(c4ccc[nH]4)C=CC2=C3)CC1 [Olanzapine-a-2-NB590] | 0.98 | 0.90 | 0.95 | 0.93 | 1.02 | 0.98 | 0.89 | 1.26 | 1.00 | 0.99 | 0.27 | 0.46 | 1.02 | 1.07 | –
5 | N#CN=C(NCCCOc1cccc(CN2CCCCC2)c1)NCCNC(=O)CCOCCOCCOCCOCCNC(=O)CCc1ccc2n1[B-](F)(F)[N+]1=C(c3ccc[nH]3)C=CC1=C2 [Aminopotentidine-2-NB590] | 1.08 | 1.06 | 1.08 | 0.98 | 0.95 | 1.03 | 0.59 | 0.94 | 0.95 | 1.02 | 0.83 | 0.83 | 1.05 | 1.03 | –
6 | Cc1nc2n(c(=O)c1CCN1CCC(c3noc4cc(F)ccc34)CC1)CCCC2OC(=O)NCCOCCOCCOCCOCCNC(=O)CCc1ccc2n1[B-](F)(F)[N+]1=C(c3ccc[nH]3)C=CC1=C2 (stereo not drawn) [Risperidone-2-NB590] | 1.01 | 1.03 | 0.96 | 0.91 | 1.00 | 0.99 | 0.97 | 0.84 | 1.00 | 1.10 | 1.20 | – | 1.00 | 1.04 | –
7 | CN(C)CCC=C1c2ccccc2CCc2ccc(C(=O)NCCNC(=O)CCOCCOCCOCCOCCNC(=O)CCc3ccc4n3[B-](F)(F)[N+]3=C(c5ccc[nH]5)C=CC3=C4)cc21 [Amitriptyline-b-2-NB590] | – | – | – | – | – | – | 0.77 | 0.97 | – | – | – | – | – | – | NanoBRET Fold Response (FZD2; [1]): 1.03; NanoBRET Fold Response (FZD2; [2]): 0.94; NanoBRET Fold Response (GRPR; [1]): 1.05; NanoBRET Fold Response (GRPR; [2]): 1.03; NanoBRET Fold Response (CCR1; [1]): 0.84; NanoBRET Fold Response (CCR1; tracer at 1μM): 0.97; NanoBRET Fold Response (PTAFR; [1]): 0.92; NanoBRET Fold Response (PTAFR; [2]): 1.02; NanoBRET Fold Response (RXFP2; tracer at 0.1μM): 1.09; NanoBRET Fold Response (RXFP2; tracer at 1μM): 1.34; NanoBRET Fold Response (PTGER4; tracer at 0.1μM): 0.99; NanoBRET Fold Response (PTGER4; tracer at 1μM): 1.04
